Measured values from patent publication US20250311727A1, “SUBSTITUTED 2-AMINOAZINES AND SALTS THEREOF, AND USE THEREOF AS HERBICIDAL ACTIVE SUBSTANCES” (BAYER AKTIENGESELLSCHAFT, priority 2022, published 2025).

Columns and labels:
Type in all cases: in vivo
[1] = test system: Stellaria media; assay: Pre-emergence herbicide efficacy at 320 g/ha, STEME; settings: scored visually after about 3 weeks vs untreated controls, 100% = plants have died
Description: (§1) Unwanted plants/weeds: • ABUTH: Abutilon theophrasti • ALOMY: Alopecurus myosuroides • AMARE: Amaranthus retroflexus • DIGSA: Digitaria sanguinalis • ECHCG: Echinochloa crus-galli • KCHSC: Kochia scoparia • LOLRI: Lolium rigidum • MATIN: Matricaria inodora • POAAN: Poa annua • POLCO: Polygonum convolvulus • SETVI: Setaria viridis • STEME: Stellaria media • VERPE: Veronica persica • VIOTR: Viola tricolor A. Post-Emergence Herbicidal Efficacy at 320 g/ha
(§2) Seeds of mono- and dicotyledonous weed plants were placed in plastic pots in sandy loam soil (doubly sown with one species each of mono- or dicotyledonous weed plants per pot) and covered with soil. The compounds of the invention, formulated in the form of wettable powders (WP) or as emulsion concentrates (EC), were then applied to the surface of the covering soil as aqueous suspension or emulsion with addition of 0.5% additive at a water application rate of 600 litres per hectare (converted). After the treatment, the pots were placed in a greenhouse and kept under good growth conditions for the test plants. After about 3 weeks, the efficacy of the preparations was scored visually in comparison with untreated controls as percentages.
(§3) For example, 100% activity=the plants have died, 0% activity=like control plants.
(§4) Tables C1 to C12 below show the effects of selected compounds of the general formula (I) according to Table 1 on various harmful plants and at an application rate corresponding to 320 g/ha, which were obtained by the trial procedure specified above.

[2] = test system: Kochia scoparia; assay: Post-emergence herbicidal efficacy at 320 g/ha, KCHSC; settings: rated visually after about 3 weeks vs untreated controls, 100% = plants have died
Description: as §1
(§5) Seeds of mono- and dicotyledonous weed plants were placed in plastic pots in sandy loam soil (doubly sown with in each case one species of mono- or dicotyledonous weed plants per pot), covered with soil and cultivated in a greenhouse under controlled growth conditions. 2 to 3 weeks after sowing, the test plants were treated at the one-leaf stage. The compounds of the invention, formulated in the form of wettable powders (WP) or as emulsion concentrates (EC), were applied to the green parts of the plants as aqueous suspension or emulsion with addition of 0.5% additive at a water application rate equivalent to 600 litres per hectare. After the test plants had been kept in the greenhouse under optimum growth conditions for about 3 weeks, the activity of the preparations was rated visually in comparison to untreated controls.
as §3
(§6) Tables A1 to A10 below show the effects of selected compounds of the general formula (I) according to Table 1 on various harmful plants and at an application rate corresponding to 320 g/ha, which were obtained by the trial procedure specified above.

[3] = test system: Stellaria media; assay: Post-emergence herbicidal efficacy at 320 g/ha, STEME; settings: rated visually after about 3 weeks vs untreated controls, 100% = plants have died
Description: as §1, §5, §3, §6

[4] = test system: Veronica persica; assay: Post-emergence herbicidal efficacy at 320 g/ha, VERPE; settings: rated visually after about 3 weeks vs untreated controls, 100% = plants have died
Description: as §1, §5, §3, §6

[5] = test system: Amaranthus retroflexus; assay: Post-emergence herbicidal efficacy at 320 g/ha, AMARE; settings: rated visually after about 3 weeks vs untreated controls, 100% = plants have died
Description: as §1, §5, §3, §6

[6] = test system: Veronica persica; assay: Post-emergence herbicidal efficacy at 80 g/ha, VERPE; settings: rated visually after about 3 weeks vs untreated controls, 100% = plants have died
Description: as §1
Seeds of monocotyledonous and dicotyledonous weeds and crop plants were placed in sandy loam in plastic or organic planting pots, covered with soil and cultivated in a greenhouse under controlled growth conditions. 2 to 3 weeks after sowing, the test plants were treated at the one-leaf stage. The compounds of the invention, formulated in the form of wettable powders (WP) or as emulsion concentrates (EC), were then sprayed onto the green parts of the plants as aqueous suspension or emulsion with addition of 0.5% additive at a water application rate of 600 l/ha (converted). After the test plants had been kept in the greenhouse under optimum growth conditions for about 3 weeks, the activity of the preparations was rated visually in comparison to untreated controls. For example, 100% activity=the plants have died, 0% activity=like control plants.
Tables B1 to B11 below show the effects of selected compounds of the general formula (I) according to Table 1 on various harmful plants and an application rate corresponding to 80 g/ha, which were obtained by the experimental procedure mentioned above.

[7] = test system: Digitaria sanguinalis; assay: Pre-emergence herbicide efficacy at 320 g/ha, DIGSA; settings: scored visually after about 3 weeks vs untreated controls, 100% = plants have died
Description: as §1, §2, §3, §4

[8] = test system: Setaria viridis; assay: Pre-emergence herbicide efficacy at 320 g/ha, SETVI; settings: scored visually after about 3 weeks vs untreated controls, 100% = plants have died
Description: as §1, §2, §3, §4

[9] = test system: Kochia scoparia; assay: Pre-emergence herbicide efficacy at 320 g/ha, KCHSC; settings: scored visually after about 3 weeks vs untreated controls, 100% = plants have died
Description: as §1, §2, §3, §4

[10] = test system: Amaranthus retroflexus; assay: Pre-emergence herbicide efficacy at 320 g/ha, AMARE; settings: scored visually after about 3 weeks vs untreated controls, 100% = plants have died
Description: as §1, §2, §3, §4

[11] = test system: Abutilon theophrasti; assay: Post-emergence herbicidal efficacy at 320 g/ha, ABUTH; settings: rated visually after about 3 weeks vs untreated controls, 100% = plants have died
Description: as §1, §5, §3, §6

Row | SMILES | Post-emergence efficacy at 320 g/ha against VERPE in % [4] | Post-emergence efficacy at 320 g/ha against AMARE in % [5] | Pre-emergence efficacy at 320 g/ha against AMARE in % [10] | also measured
1 | Cc1cc(C)c(-c2cc(C(F)F)no2)c(Nc2ncc(Cl)cn2)n1 [Example 2-4] | – | – | – | Pre-emergence efficacy at 320 g/ha against STEME in % [1]: 90%; Post-emergence efficacy at 320 g/ha against KCHSC in % [2]: 90%; Post-emergence efficacy at 320 g/ha against STEME in % [3]: 100%
2 | N#Cc1cccc(Nc2ncc(Cl)cn2)c1-n1cc(Br)cn1 [Example 1-73] | 90% | 100% | – | Post-emergence efficacy at 320 g/ha against KCHSC in % [2]: 90%
3 | Fc1cnc(Nc2ccccc2CCCC(F)(F)F)nc1 [Example 1-3] | 90% | 90% | – | –
4 | Fc1cnc(Nc2ccccc2-n2cc(C(F)(F)F)cn2)nc1 [Example 1-77] | – | – | – | Post-emergence efficacy at 80 g/ha against VERPE in % [6]: 80%
5 | Fc1ccc(-c2ccccc2Nc2ncc(Cl)cn2)cc1F [Example 1-28] | 100% | 100% | – | –
6 | N#Cc1cccc(Nc2ncc(Cl)cn2)c1-n1cccn1 [Example 1-64] | 90% | 100% | 100% | Pre-emergence efficacy at 320 g/ha against DIGSA in % [7]: 90%; Pre-emergence efficacy at 320 g/ha against SETVI in % [8]: 100%; Pre-emergence efficacy at 320 g/ha against KCHSC in % [9]: 90%; Post-emergence efficacy at 320 g/ha against KCHSC in % [2]: 100%; Post-emergence efficacy at 320 g/ha against STEME in % [3]: 90%
7 | N#Cc1cccc(Nc2ccc(F)cn2)c1-n1cc(C(F)(F)F)cn1 [Example 1-52] | 90% | 90% | 90% | –
8 | Fc1cccc(Nc2ccc(Cl)cn2)c1-c1cc(C(F)F)no1 [Example 1-56] | 90% | 90% | – | –
9 | COCc1cnn(-c2c(C#N)cccc2Nc2ncc(F)cn2)c1 [Example 1-69] | 100% | 100% | 100% | Pre-emergence efficacy at 320 g/ha against SETVI in % [8]: 90%; Pre-emergence efficacy at 320 g/ha against STEME in % [1]: 100%; Post-emergence efficacy at 320 g/ha against STEME in % [3]: 100%; Post-emergence efficacy at 320 g/ha against ABUTH in % [11]: 90%
10 | N#Cc1cc(Cl)cnc1Nc1ccccc1CCCCC(F)(F)F [Example 1-76] | 90% | 90% | – | –
11 | Cc1cc(C)c(-c2cc(C(F)F)no2)c(Nc2ccc(Cl)cn2)n1 [Example 2-7] | 90% | – | – | –
12 | FC(F)(F)CCCc1ccccc1Nc1ncc(Cl)cn1 [Example 1-1] | 90% | 90% | 90% | Pre-emergence efficacy at 320 g/ha against SETVI in % [8]: 90%; Post-emergence efficacy at 320 g/ha against ABUTH in % [11]: 90%
13 | N#Cc1ccc(Nc2cccc(C#N)c2-n2cc(C(F)(F)F)cn2)nc1 [Example 1-58] | 90% | 90% | – | –
14 | FC(F)(F)CCCc1ccccc1Nc1ccc(Cl)cn1 [Example 1-70] | 90% | 100% | – | –
15 | N#Cc1cccc(Nc2ccc(Cl)cn2)c1-n1cc(C(F)(F)F)cn1 [Example 1-59] | 100% | 90% | 90% | Post-emergence efficacy at 320 g/ha against KCHSC in % [2]: 90%
16 | Clc1ccc(-c2ccccc2Nc2ncc(Cl)cn2)cc1 [Example 1-25] | 90% | – | – | Post-emergence efficacy at 320 g/ha against STEME in % [3]: 100%
